Laboratory results taken from PubChem BioAssay (NCI).
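Tested at 5 concentrations; 48 h exposure; 96-well plates; endpoints linearly interpolated, else capped at highest concentration. Abbreviation: GI50, concentration required for 50% inhibition of growth. TGI denotes the concentration required for complete inhibition of growth.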

How the values were obtained:
Test in all cases: NCI anticancer screen, dose series, 48 h
MDA-MB-231 breast = system: MDA-MB-231 breast
BT-549 breast = system: BT-549 breast
SNB-75 CNS = system: SNB-75 CNS
SR leukemia = system: SR leukemia
PC-3 prostate = system: PC-3 prostate
HS 578T breast = system: HS 578T breast
SW-620 colon = system: SW-620 colon
OVCAR-3 ovarian = system: OVCAR-3 ovarian
SF-295 CNS = system: SF-295 CNS
A549 NSCLC = system: A549 NSCLC
NCI-H23 lung = system: NCI-H23 lung
SK-MEL-5 melanoma = system: SK-MEL-5 melanoma
TK-10 renal = system: TK-10 renal
NCI/ADR-RES ovarian = system: NCI/ADR-RES ovarian
IGROV1 ovarian = system: IGROV1 ovarian
SK-MEL-2 melanoma = system: SK-MEL-2 melanoma
NCI-H460 lung = system: NCI-H460 lung
RXF 393 renal = system: RXF 393 renal
SK-MEL-28 melanoma = system: SK-MEL-28 melanoma
U251 CNS = system: U251 CNS
OVCAR-4 ovarian = system: OVCAR-4 ovarian
CAKI-1 renal = system: CAKI-1 renal
HL-60(TB) leukemia = system: HL-60(TB) leukemia
K-562 leukemia = system: K-562 leukemia
SK-OV-3 ovarian = system: SK-OV-3 ovarian
HOP-92 NSCLC = system: HOP-92 NSCLC
UACC-257 melanoma = system: UACC-257 melanoma
MDA-MB-435 = system: MDA-MB-435
RPMI-8226 leukemia = system: RPMI-8226 leukemia
NCI-H522 lung = system: NCI-H522 lung
HCC-2998 colon = system: HCC-2998 colon
LOX IMVI melanoma = system: LOX IMVI melanoma
EKVX NSCLC = system: EKVX NSCLC
CCRF-CEM leukemia = system: CCRF-CEM leukemia
HCT-116 colon = system: HCT-116 colon
DU-145 prostate = system: DU-145 prostate
MALME-3M melanoma = system: MALME-3M melanoma
T-47D breast = system: T-47D breast
HCT-15 colon = system: HCT-15 colon
UACC-62 melanoma = system: UACC-62 melanoma
UO-31 renal = system: UO-31 renal
786-0 renal = system: 786-0 renal
OVCAR-5 ovarian = system: OVCAR-5 ovarian
SF-268 CNS = system: SF-268 CNS
ACHN renal = system: ACHN renal
KM12 colon = system: KM12 colon
SF-539 CNS = system: SF-539 CNS
HOP-62 NSCLC = system: HOP-62 NSCLC
HT29 colon = system: HT29 colon
SN12C renal = system: SN12C renal
OVCAR-8 ovarian = system: OVCAR-8 ovarian
MOLT-4 leukemia = system: MOLT-4 leukemia
SNB-19 CNS = system: SNB-19 CNS
COLO 205 colon = system: COLO 205 colon
NCI-H226 lung = system: NCI-H226 lung
MCF7 breast = system: MCF7 breast
A498 renal = system: A498 renal

Work on C#CCOc1cccc(-c2nc(N)nc(Nc3ccccc3SSc3ccccc3Nc3nc(N)nc(-c4cccc(OCC#C)c4)n3)n2)c1 yielded a GI50 (MDA-MB-231 breast) of 4.78 µM, a TGI (MDA-MB-231 breast) greater than 33.3 µM and a GI50 (BT-549 breast) of 8.52 µM. For the same compound, the TGI (BT-549 breast) was greater than 33.3 µM, the GI50 (SNB-75 CNS) was 8.99 µM and the TGI (SNB-75 CNS) was 31.3 µM. It also gave a GI50 (SR leukemia) of 1.41 µM, a TGI (SR leukemia) greater than 33.3 µM and a GI50 (PC-3 prostate) of 1.61 µM. It also gave a TGI (PC-3 prostate) greater than 33.3 µM, a GI50 (HS 578T breast) of 6.87 µM and a TGI (HS 578T breast) of 31.7 µM. It also gave a GI50 (SW-620 colon) of 14.3 µM, a TGI (SW-620 colon) greater than 33.3 µM and a GI50 (OVCAR-3 ovarian) of 18.2 µM. It also gave a TGI (OVCAR-3 ovarian) greater than 33.3 µM, a GI50 (SF-295 CNS) of 0.751 µM and a TGI (SF-295 CNS) of 1.93 µM. It also gave a GI50 (A549 NSCLC) of 1.1 µM, a TGI (A549 NSCLC) of 4.49 µM and a GI50 (NCI-H23 lung) of 1.95 µM. It also gave a TGI (NCI-H23 lung) of 10.4 µM, a GI50 (SK-MEL-5 melanoma) of 9.94 µM and a TGI (SK-MEL-5 melanoma) greater than 33.3 µM. The GI50 (TK-10 renal) was 13.1 µM, the TGI (TK-10 renal) was greater than 33.3 µM and the GI50 (NCI/ADR-RES ovarian) was 1.89 µM. It also gave a TGI (NCI/ADR-RES ovarian) of 8.56 µM, a GI50 (IGROV1 ovarian) of 1.73 µM and a TGI (IGROV1 ovarian) of 24.2 µM. For the same compound, the GI50 (SK-MEL-2 melanoma) was 16.9 µM, the TGI (SK-MEL-2 melanoma) was greater than 33.3 µM and the GI50 (NCI-H460 lung) was 1.72 µM. It also gave a TGI (NCI-H460 lung) of 8.37 µM, a GI50 (RXF 393 renal) of 33.1 µM and a TGI (RXF 393 renal) greater than 33.3 µM. The GI50 (SK-MEL-28 melanoma) was greater than 33.3 µM, the TGI (SK-MEL-28 melanoma) was greater than 33.3 µM and the GI50 (U251 CNS) was 1.08 µM. The TGI (U251 CNS) was 3.82 µM, the GI50 (OVCAR-4 ovarian) was 12.9 µM and the TGI (OVCAR-4 ovarian) was greater than 33.3 µM. The GI50 (CAKI-1 renal) was 3.78 µM, the TGI (CAKI-1 renal) was 14.2 µM and the GI50 (HL-60(TB) leukemia) was 9.92 µM. It also gave a TGI (HL-60(TB) leukemia) greater than 33.3 µM, a GI50 (K-562 leukemia) of 8.03 µM and a TGI (K-562 leukemia) greater than 33.3 µM. It also gave a GI50 (SK-OV-3 ovarian) of 13.6 µM, a TGI (SK-OV-3 ovarian) greater than 33.3 µM and a GI50 (HOP-92 NSCLC) of 7.77 µM. It also gave a TGI (HOP-92 NSCLC) greater than 33.3 µM, a GI50 (UACC-257 melanoma) of 29.7 µM and a TGI (UACC-257 melanoma) greater than 33.3 µM. The GI50 (MDA-MB-435) was 14.4 µM, the TGI (MDA-MB-435) was greater than 33.3 µM and the GI50 (RPMI-8226 leukemia) was 1.55 µM. It also gave a TGI (RPMI-8226 leukemia) of 17.1 µM, a GI50 (NCI-H522 lung) of 8.13 µM and a TGI (NCI-H522 lung) greater than 33.3 µM. The GI50 (HCC-2998 colon) was greater than 33.3 µM, the TGI (HCC-2998 colon) was greater than 33.3 µM and the GI50 (LOX IMVI melanoma) was 0.746 µM. The TGI (LOX IMVI melanoma) was 1.8 µM, the GI50 (EKVX NSCLC) was 7.19 µM and the TGI (EKVX NSCLC) was greater than 33.3 µM. For the same compound, the GI50 (CCRF-CEM leukemia) was 2.64 µM, the TGI (CCRF-CEM leukemia) was greater than 33.3 µM and the GI50 (HCT-116 colon) was 2 µM. The TGI (HCT-116 colon) was greater than 33.3 µM, the GI50 (DU-145 prostate) was 10.6 µM and the TGI (DU-145 prostate) was greater than 33.3 µM. For the same compound, the GI50 (MALME-3M melanoma) was greater than 33.3 µM, the TGI (MALME-3M melanoma) was greater than 33.3 µM and the GI50 (T-47D breast) was 3.29 µM. For the same compound, the TGI (T-47D breast) was greater than 33.3 µM, the GI50 (HCT-15 colon) was 2.31 µM and the TGI (HCT-15 colon) was greater than 33.3 µM. It also gave a GI50 (UACC-62 melanoma) of 5.43 µM, a TGI (UACC-62 melanoma) of 13.3 µM and a GI50 (UO-31 renal) of 1.51 µM. The TGI (UO-31 renal) was 5.81 µM, the GI50 (786-0 renal) was 21.2 µM and the TGI (786-0 renal) was greater than 33.3 µM. The GI50 (OVCAR-5 ovarian) was 7.32 µM, the TGI (OVCAR-5 ovarian) was 28.2 µM and the GI50 (SF-268 CNS) was 3.94 µM. It also gave a TGI (SF-268 CNS) of 12.1 µM, a GI50 (ACHN renal) of 1.19 µM and a TGI (ACHN renal) of 4.35 µM. For the same compound, the GI50 (KM12 colon) was 1.69 µM, the TGI (KM12 colon) was 11.1 µM and the GI50 (SF-539 CNS) was 11.1 µM. It also gave a TGI (SF-539 CNS) greater than 33.3 µM, a GI50 (HOP-62 NSCLC) of 0.674 µM and a TGI (HOP-62 NSCLC) of 1.58 µM. The GI50 (HT29 colon) was greater than 33.3 µM, the TGI (HT29 colon) was greater than 33.3 µM and the GI50 (SN12C renal) was 0.971 µM. For the same compound, the TGI (SN12C renal) was 5.37 µM, the GI50 (OVCAR-8 ovarian) was 2.42 µM and the TGI (OVCAR-8 ovarian) was 12.9 µM. It also gave a GI50 (MOLT-4 leukemia) of 4.45 µM, a TGI (MOLT-4 leukemia) greater than 33.3 µM and a GI50 (SNB-19 CNS) of 7.37 µM. It also gave a TGI (SNB-19 CNS) greater than 33.3 µM, a GI50 (COLO 205 colon) greater than 33.3 µM and a TGI (COLO 205 colon) greater than 33.3 µM. For the same compound, the GI50 (NCI-H226 lung) was 4.52 µM, the TGI (NCI-H226 lung) was greater than 33.3 µM and the GI50 (MCF7 breast) was 17.1 µM. The TGI (MCF7 breast) was greater than 33.3 µM, the GI50 (A498 renal) was 6.58 µM and the TGI (A498 renal) was greater than 33.3 µM.
